The record followed here is US12496350B2 (Ohio State Innovation Foundation, priority 2018, dated 2025).

Read-outs that look alike come from different tables or passages of the source. Where a SMILES comes first, the peptide text is derived from it. [ ]: non-standard residue; d: D form. The star is where a group is joined. X1 = O=C(O)c1cc(NC(=S)*)ccc1C1c2ccc(O)cc2Oc2cc(O)ccc21; 2Nal = N[C@@H](Cc1ccc2ccccc2c1)C(=O)O; Bta = N[C@@H](Cc1csc2ccccc12)C(=O)O; Pen = CC(C)(S)[C@H](N)C(=O)O; Tle = CC(C)(C)[C@H](N)C(=O)O; Pip = O=C(O)[C@@H]1CCCCN1; AEEA = NCCOCCOCC(=O)O

For series [1], the system named is HeLa cells. The series is described as follows: Cellular uptake efficiency by flow cytometry. The following applies: for Uptake (% rel.): HeLa cells, 5 μM, 2 h, relative to CPP9 (100%). Type of series: cell-based. The procedure:
(§1) Cellular Uptake Efficiency: HeLa cells were seeded into 12-well cell-culture treated plates at a final density of 15×10^4 cells/well in DMEM supplemented with 10% FBS and 1% penicillin/streptomycin and incubated overnight at 37° ° C. and 5% CO2. After 24 h, the media was aspirated followed by washing the cells three times with warm DPBS. Peptides were diluted to a final concentration of 5 μM in DMEM containing 10% FBS with 1% penicillin/streptomycin, added to each well and then incubated for 2 h at 37° C. and 5% CO2. After 2 h, treatment media was aspirated and the cells were washed three times with ice-cold DPBS. Cells were removed from the plate via treatment with trypsin/EDTA and then harvested in ice-cold DPBS followed by centrifugation at ×300 RCF, 4° C. for 5 min. Cells were resuspended in DPBS and quantified using a BD Biosciences LSR II flow cytometer and gated using FlowJo. Values for uptake are provided as a percentage relative to positive control, CPP9 ([cyclo-fΦRrRrQ]-miniPEG-K[NF]).
as §1, with “Cellular Uptake. HeLa cells” for “Cellular Uptake Efficiency: HeLa cells”, “at 37° C. and” for “at 37° ° C. and”, “37° C. with 5% CO2.” for “37° C. and 5% CO2.”, “centrifugation at 300 g, 4° C.” for “centrifugation at ×300 RCF, 4° C.”, “control, CPP9 ([cyclo-fΦRrRrQ]-miniPEG-K[NF]), which has a 62% cytosolic entry efficiency. PGD97 entered HeLa cells at 60% efficiency relative to CPP9, corresponding to an absolute cytosolic entry efficiency of ˜36% (FIG. 9).” for “control, CPP9 ([cyclo-fΦRrRrQ]-miniPEG-K[NF]).”

The target of series [2] is T1, NHERF2-PDZ1 (N2P1) (Homo sapiens, UniProt Q15599).
T1 construct: PDZ1 (N2P1), and NHERF2-PDZ2 domains (N2P2)
The series is described as follows: Direct fluorescence polarization binding of FITC-labeled peptide. The following applies: 50 nM FITC-labeled peptide, FP. The procedure: (§2) Binding Affinity and Selectivity. The potency and selectivity of inhibitor 29 was first assessed by comparing its binding affinity to the four PDZ domains of CAL, NHERF1, and NHERF2, which are involved in the trafficking of CFTR to and from the plasma membrane. Peptides were labeled with FITC at the N-terminus through a miniPEG linker and tested for binding to various PDZ domains by fluorescence polarization (FP). FITC-labeled peptide (50 nM) was incubated with varying concentrations of PDZ domain in PBS (pH 7.4) containing 0.01% Triton X-100 and 2 mM TCEP for 1 h at room temperature. After 1 h, 20 μL of each sample was pipetted into 384-well black-on-black microplates and fluorescence polarization was measured by using a TECAN Infinite M1000 plate reader. Data was processed using GraphPad PRISM ver. 8.0.

Series [3] concerns the target T2, NHERF2-PDZ2 (N2P2) (Homo sapiens, UniProt Q15599).
T2 construct: PDZ1 (N2P1), and NHERF2-PDZ2 domains (N2P2)
The description is as above. The conditions noted are these: 50 nM FITC-labeled peptide, FP. The procedure: as §2

Series [4] addresses T3, NHERF1-PDZ1 (N1P1) (Homo sapiens, UniProt O14745).
T3 sequence (O14745 14-94 limits assumed): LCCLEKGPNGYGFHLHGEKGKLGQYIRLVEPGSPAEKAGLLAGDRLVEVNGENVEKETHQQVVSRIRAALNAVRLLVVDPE
The series is described as above. As for the experimental part:
as §2

Series [5] concerns the target T4, CAL PDZ domain (CALP5-His) (Homo sapiens, UniProt Q9HD26).
T4 construct: His
In words: FP-based competition assay, Condition B (probe FAM-[…]-OH). The following applies: for IC50: 500 nM CALP5-His, 5 mM DTT. Type of series: binding. The procedure:
Serial dilutions of each competitor peptide were prepared in PBS and the incubation solution was added to each. The combined solutions were gently mixed for 1 h at RT after which 20 uL sample was pipetted into 384-well black-on-black microplates and fluorescence polarization was measured using a TECAN Infinite M1000 plate reader. Data was processed to determine IC50 using GraphPad PRISM ver. 6.0.

In series [6] the target is T4, CAL PDZ domain (CALP5-His). The series is described as follows: Direct fluorescence polarization binding of labeled peptide, Condition C. As for the experimental part: Condition C (denoted with superscript ^C): 50 nM labeled peptide was incubated with 2 mM TCEP in PBS at pH 7.4 containing 0.01% Triton-X100. CALP5-His was serially diluted in PBS containing 0.01% Triton-X100 to which was then added the peptide and TCEP solution. This solution was mixed for 1 h at RT then 20 uL was pipetted into 384-well microplates and fluorescence polarization was measured using a TECAN Infinite M1000 plate reader. KD values were calculated using KaleidaGraph v. 3.6 using the equation: […]
as §2

A short description of series [7]: HCT116 cell spheroids in RPMI-1640 medium supplemented with 10% FBS and 1% penicillin/streptomycin. The following applies: up to 24 h.
Series [8] concerns HCT116 cell spheroids. In words: Intracellular stability by MALDI imaging. Type of series: in vitro ADME. The following applies: after 4 or 24 h incubation with PGD97. As for the experimental part: Intracellular Stability. PGD97 ([…]) was added to HCT116 cell spheroids in RPMI-1640 medium supplemented with 10% FBS and 1% penicillin/streptomycin and incubated for 4 or 24 h. After incubation, spheroids were washed 3× with DPBS, quickly frozen, embedded in a solid support, and cryo-sectioned. Prior to analysis, sinapinic acid was sublimed onto individual slides. The sample was imaged using a Bruker ultrafleXtreme MALDI-TOF-TOF and analyzed for the presence of proteolytic degradation fragments. Heatmaps, scaled relative to the most intense signal, were generated for the intact peptide (both 29 and 32) as well as ˜20 potential proteolytic fragments at each time point. […] A degradation fragment (#1) corresponding to proteolytic cleavage between Thr and Arg (FIG. 8B) was observed, but none of the other potential degradation products were observed. […] Most importantly, significant concentrations of intact peptide 29 was still present inside the cells after 24 h.

Series [9] deals with LC3-II. In words: Autophagy in macrophages, western blotting for LC3-II. The following applies: 10 μM, ΔF508 CFTR macrophages. Type of series: cell-based, human. The procedure:
Effect on Autophagy in Macrophage. Human primary ΔF508 CFTR macrophages were incubated with 10 μM VX809 (n=1) or 100 nM PGD97 (n=2) for 48 h in complete growth medium supplemented with 10% FBS and 1% penicillin/streptomycin at 37° C. Induction of autophagy was determined via western blotting for autophagy-associated protein LC3-II.

Where [10] appears, read: 50 nM FITC-labeled peptide, FP, read-out: KD (nM) N1P1.
[11] abbreviates: 50 nM FITC-labeled peptide, FP, read-out: KD (nM) CALP.
Where [12] appears, read: Condition B (superscript b): 100 nM probe FAM-ANSRWPTSII-OH.
[13] abbreviates: FITC-labeled peptide, FP, read-out: Affinity (KD).

T1 sequence (Q15599 11-90 limits assumed): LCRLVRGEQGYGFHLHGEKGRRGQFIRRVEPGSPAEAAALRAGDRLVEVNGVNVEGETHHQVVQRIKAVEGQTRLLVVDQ
T2 sequence (Q15599 150-230 limits assumed): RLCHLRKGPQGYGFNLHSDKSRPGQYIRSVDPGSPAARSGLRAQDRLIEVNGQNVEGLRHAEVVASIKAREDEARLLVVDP

`CC(=O)N[C@@H](CS)C(=O)N[C@H](CCCNC(=N)N)C(=O)N[C@@H](CCCNC(=N)N)C(=O)N[C@@H](CCCNC(=N)N)C(=O)N[C@@H](Cc1ccc2ccccc2c1)C(=O)N[C@@H](Cc1c[nH]c2ccccc12)C(=O)N[C@@H](CCC(N)=O)C(=O)N[C@H](C(=O)N[C@H](C(=O)N[C@@H](CCCNC(=N)N)C(=O)N[C@H](C(=O)O)C(C)(C)C)[C@@H](C)O)C(C)(C)S` [Compound 20, Ac-Cys-(D-Arg)-Arg-Arg-(2-Nal)-Trp-Gln-Pen-Thr-Arg-Tle-OH] (Ac-C[dR]RR[2Nal]WQ[Pen]TR[Tle]-OH): in series [1], the “Uptake (% rel.)” value is 28 ± 1%. Besides, the Kd in [2] is 2980 ± 150 nM; in [3], 4970 ± 890 nM; in series [4] (setting [10]), 1640 ± 150 nM; in [6] (setting [11]) it was 110 nM; in series [6] (FITC-labeled peptide 20, FP, read-out: KD for CAL PDZ domain (FIG. 3A)), ~50 nM. Besides, the IC50 in [5] (Condition B (superscript b): 100 nM probe FAM-[…]-OH) is 165 nM.

With `CC(=O)N[C@@H](CS)C(=O)N[C@H](CCCNC(=N)N)C(=O)N[C@@H](CCCNC(=N)N)C(=O)N[C@@H](CCCNC(=N)N)C(=O)N[C@@H](Cc1ccc2ccccc2c1)C(=O)N[C@@H](Cc1c[nH]c2ccccc12)C(=O)N[C@H](C(=O)N[C@H](C(=O)N[C@H](C(=O)N[C@@H](CCCNC(=N)N)C(=O)N[C@H](C(=O)O)C(C)(C)C)[C@@H](C)O)C(C)(C)C)C(C)(C)S` [Compound 24, Ac-Cys-(D-Arg)-Arg-Arg-(2-Nal)-Trp-Pen-Tle-Thr-Arg-Tle-OH] (Ac-C[dR]RR[2Nal]W[Pen][Tle]TR[Tle]-OH), the “Uptake (% rel.)” value in series [1] was 92%. Moreover, in series [1] (relative to peptide 22), the “cell-permeability, fold higher” value is given as 4 fold. The IC50 in [5] (setting [12]) was 380 nM. Moreover, the “decrease of CAL binding” value in [5] (relative to peptide 22) is reported as ~2 fold.

Turning to `C[C@@H](O)[C@H](NC(=O)[C@@H](NC(=O)[C@@H]1CCCCN1C(=O)[C@H](Cc1csc2ccccc12)NC(=O)[C@H](Cc1ccc2ccccc2c1)NC(=O)[C@H](CCCNC(=N)N)NC(=O)[C@H](CCCNC(=N)N)NC(=O)[C@@H](CCCNC(=N)N)NC(=O)[C@H](CS)NC(=O)COCCOCCNC(=S)Nc1ccc(C2c3ccc(O)cc3Oc3cc(O)ccc32)c(C(=O)O)c1)C(C)(C)S)C(=O)N[C@@H](CCCNC(=N)N)C(=O)N[C@H](C(=O)O)C(C)(C)C` [Compound 29-FITC, FITC-miniPEG-Cys-(D-Arg)-Arg-Arg-Nal-Bta-Pip-Pen-Thr-Arg-Tle-OH] ({X1-AEEA}-C[dR]RR[2Nal][Bta][Pip][Pen]TR[Tle]-OH), the Kd is 1370 ± 380 nM in [2]; 7480 ± 580 nM in [3]; 780 ± 10 nM in series [4] (setting [10]); 6 ± 3 nM in series [6] (setting [11]); 6 ± 3 nM in [6] (setting [13]).

Consider “Ac-Cys-(D-Arg)-Arg-Arg-Nal-Bta-Pip-Pen-Thr-Arg-Tle-OH”, for which the cleaved bond entry in [7] is reported as “Thr-Arg”.

As for `CC(=O)N[C@@H](CS)C(=O)N[C@H](CCCNC(=N)N)C(=O)N[C@@H](CCCNC(=N)N)C(=O)N[C@@H](CCCNC(=N)N)C(=O)N[C@@H](Cc1ccc2ccccc2c1)C(=O)N[C@@H](Cc1csc2ccccc12)C(=O)N1CCCC[C@H]1C(=O)N[C@H](C(=O)N[C@H](C(=O)N[C@@H](CCCNC(=N)N)C(=O)N[C@H](C(=O)O)C(C)(C)C)[C@@H](C)O)C(C)(C)S` [Compound 29, Ac-Cys-(D-Arg)-Arg-Arg-Nal-Bta-Pip-Pen-Thr-Arg-Tle-OH] (Ac-C[dR]RR[2Nal][Bta][Pip][Pen]TR[Tle]-OH), the Kd in series [4] (range over N1P1, N2P1 and N2P2, read-out: KD values for NHERF1/2 PDZ domains) is 780 to 7480 nM; in series [6] (setting [11]) it was 6 ± 3 nM; in [6] (setting [13]), 6 nM. In series [8], the “presence of intact peptide in spheroids” value is “High concentrations”. Moreover, in series [6] (Pip for Pro), the “improvement of CAL PDZ-binding affinity” value is reported as ~15 fold. In addition, the “selectivity for CAL vs NHERF PDZ domains” value in [6] (ratio of KD values, NHERF1/2 PDZ domains vs CAL PDZ) is ≥ 130 fold.

Consider `CC(C)(CO)c1cc2cc(NC(=O)C3(c4ccc5c(c4)OC(F)(F)O5)CC3)c(F)cc2n1C[C@@H](O)CO` [VX661, Tezacaftor, reference compound], for which the LC3-II protein levels result in series [9] is on record as “also effective”.

With `CC(=O)N[C@@H](CS)C(=O)N[C@H](CCCNC(=N)N)C(=O)N[C@H](CCCNC(=N)N)C(=O)N[C@@H](CCCNC(=N)N)C(=O)N[C@@H](Cc1ccc2ccccc2c1)C(=O)N[C@@H](Cc1c[nH]c2ccccc12)C(=O)N[C@@H](CCC(N)=O)C(=O)N[C@H](C(=O)N[C@H](C(=O)N[C@@H](CCCNC(=N)N)C(=O)N[C@H](C(=O)O)C(C)(C)C)[C@@H](C)O)C(C)(C)S` [Compound 21, Ac-Cys-(D-Arg)-(D-Arg)-Arg-(2-Nal)-Trp-Gln-Pen-Thr-Arg-Tle-OH] (Ac-C[dR][dR]R[2Nal]WQ[Pen]TR[Tle]-OH), the “Uptake (% rel.)” value in series [1] stood at 23 ± 4%. The IC50 in series [5] (setting [12]) turned out to be 270 nM.
